Experimental data: ChEMBL document CHEMBL4507328, “Data for DCP probe BAY-390” (2021)
Active and inactive are the calls of the source. The calls are words filed in the database; no cut-off is given here.

Experiments:
[1] = molecular target: B1 bradykinin receptor (Homo sapiens) (UniProt P46663); experiment: Inhibition of Bradykinin B1 at 10 µM in the Eurofins-Panlabs radioligand binding assay (Eurofins_assay_212510); conditions: Compound concentration 10.0 uM
[2] = molecular target: Estrogen receptor (Homo sapiens, UniProt P03372); experiment: Inhibition of Estrogen ERalpha at compound concentration of 10.0 uM in the Eurofins-Panlabs radioligand binding assay (Eurofins_assay_226010); set-up: ligand concentration 0.5 nM, non-specific ligand with concentration 1 uM Diethylstilbestrol, incubation time 2 h, incubation temperature 25 C
[3] = molecular target: Transient receptor potential cation channel subfamily A member 1 (Mus musculus, UniProt Q8BLA8); experiment: FLIPR Ca2+ assay (mouse TRPA1)
[4] = FLIPR Ca2+ assay (dog TRPA1); set-up: species or system Canis lupus familiaris
[5] = FLIPR Ca2+ assay (monkey TRPA1)
[6] = molecular target: Potassium channel subfamily K member 9 (Homo sapiens, UniProt Q9NPC2); experiment: Selectivity screen (KCNK9)
[7] = molecular target: Voltage-dependent T-type calcium channel subunit alpha-1H (Homo sapiens, UniProt O95180); experiment: Selectivity screen (CACNA1H)
[8] = molecular target: 5-hydroxytryptamine receptor 1B (Homo sapiens) (UniProt P28222); conditions: Compound concentration 10.0 uM
[9] = molecular target: 5-hydroxytryptamine receptor 5A (Homo sapiens) (UniProt P47898); conditions: Compound concentration 10.0 uM
[10] = molecular target: D(1A) dopamine receptor (Homo sapiens) (UniProt P21728); conditions: Compound concentration 10.0 uM
[11] = molecular target: Adenosine receptor A1 (Homo sapiens) (UniProt P30542); conditions: Compound concentration 10.0 uM
[12] = molecular target: Mu-type opioid receptor (Homo sapiens) (UniProt P35372); conditions: Compound concentration 10.0 uM
[13] = molecular target: 5-hydroxytryptamine receptor 2B (Homo sapiens) (UniProt P41595); conditions: Compound concentration 10.0 uM
[14] = molecular target: Sodium-dependent dopamine transporter (Homo sapiens, UniProt Q01959); conditions: Compound concentration 10.0 uM
[15] = organism: Rattus norvegicus; conditions: Compound concentration 10.0 uM
[16] = molecular target: T1, Muscarinic acetylcholine receptor M4 (Homo sapiens) (UniProt P08173); conditions: Compound concentration 10.0 uM
T1 sequence (whole entry): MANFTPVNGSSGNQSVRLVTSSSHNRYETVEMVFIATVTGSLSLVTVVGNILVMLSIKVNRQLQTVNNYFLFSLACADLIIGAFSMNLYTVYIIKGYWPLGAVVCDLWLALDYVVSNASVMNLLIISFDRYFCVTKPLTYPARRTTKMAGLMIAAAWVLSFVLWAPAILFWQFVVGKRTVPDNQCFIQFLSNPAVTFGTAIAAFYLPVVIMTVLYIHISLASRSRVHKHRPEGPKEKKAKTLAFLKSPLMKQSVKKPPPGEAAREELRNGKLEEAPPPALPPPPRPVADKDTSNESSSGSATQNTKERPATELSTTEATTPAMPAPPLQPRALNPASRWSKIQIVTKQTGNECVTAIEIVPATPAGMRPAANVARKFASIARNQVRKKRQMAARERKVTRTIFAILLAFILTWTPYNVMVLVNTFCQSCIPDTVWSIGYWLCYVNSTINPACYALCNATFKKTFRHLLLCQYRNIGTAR

[17] = molecular target: T2, 5-hydroxytryptamine receptor 2C (Homo sapiens) (UniProt P28335); conditions: Compound concentration 10.0 uM
T2 sequence (whole entry): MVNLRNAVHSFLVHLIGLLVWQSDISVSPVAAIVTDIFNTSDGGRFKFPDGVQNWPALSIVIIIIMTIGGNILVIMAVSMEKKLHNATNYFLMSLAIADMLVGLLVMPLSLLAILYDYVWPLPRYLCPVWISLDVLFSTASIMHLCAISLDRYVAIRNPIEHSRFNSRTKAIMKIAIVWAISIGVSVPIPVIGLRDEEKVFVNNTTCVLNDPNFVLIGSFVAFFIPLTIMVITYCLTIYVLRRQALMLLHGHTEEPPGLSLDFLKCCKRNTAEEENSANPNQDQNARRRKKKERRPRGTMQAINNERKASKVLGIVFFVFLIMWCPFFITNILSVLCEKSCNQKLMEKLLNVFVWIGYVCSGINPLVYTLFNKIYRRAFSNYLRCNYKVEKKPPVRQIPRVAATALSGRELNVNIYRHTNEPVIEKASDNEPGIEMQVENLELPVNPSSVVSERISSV

[18] = molecular target: Vasopressin V1a receptor (Homo sapiens) (UniProt P37288); conditions: Compound concentration 10.0 uM
[19] = molecular target: Motilin receptor (Homo sapiens) (UniProt O43193); conditions: Compound concentration 10.0 uM
[20] = molecular target: Histamine H2 receptor (Homo sapiens, UniProt P25021); experiment: GPCRScan assay: inhibition of H2; set-up: radioligand conc. used [nm] 0.02 – 0.05, parental cells Stable HEK
[21] = molecular target: 5-hydroxytryptamine receptor 2B (Homo sapiens) (UniProt P41595); conditions: Compound concentration 10.0 uM; remark: listed apart in the source
[22] = molecular target: 5-hydroxytryptamine receptor 6 (Homo sapiens) (UniProt P50406); conditions: Compound concentration 10.0 uM
[23] = molecular target: Alpha-2B adrenergic receptor (Homo sapiens) (UniProt P18089); conditions: Compound concentration 10.0 uM

Sequence of Estrogen receptor (P03372 whole entry): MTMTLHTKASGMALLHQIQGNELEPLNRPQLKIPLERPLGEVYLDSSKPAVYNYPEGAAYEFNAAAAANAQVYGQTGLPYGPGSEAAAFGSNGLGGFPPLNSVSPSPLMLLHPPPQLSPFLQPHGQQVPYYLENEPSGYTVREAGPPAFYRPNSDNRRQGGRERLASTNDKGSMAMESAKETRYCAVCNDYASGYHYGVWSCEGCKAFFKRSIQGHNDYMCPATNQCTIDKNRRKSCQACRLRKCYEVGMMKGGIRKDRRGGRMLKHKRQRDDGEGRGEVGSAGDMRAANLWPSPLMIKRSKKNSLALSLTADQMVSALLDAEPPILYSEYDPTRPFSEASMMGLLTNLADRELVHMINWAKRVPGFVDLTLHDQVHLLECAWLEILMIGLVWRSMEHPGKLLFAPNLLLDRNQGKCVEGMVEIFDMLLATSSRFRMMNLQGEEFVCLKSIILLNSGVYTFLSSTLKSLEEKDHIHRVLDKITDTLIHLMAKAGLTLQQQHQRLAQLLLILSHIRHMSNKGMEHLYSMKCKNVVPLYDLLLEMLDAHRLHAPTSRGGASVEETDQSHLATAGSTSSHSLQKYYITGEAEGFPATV
Sequence of 5-hydroxytryptamine receptor 2B (Homo sapiens) (P41595 whole entry): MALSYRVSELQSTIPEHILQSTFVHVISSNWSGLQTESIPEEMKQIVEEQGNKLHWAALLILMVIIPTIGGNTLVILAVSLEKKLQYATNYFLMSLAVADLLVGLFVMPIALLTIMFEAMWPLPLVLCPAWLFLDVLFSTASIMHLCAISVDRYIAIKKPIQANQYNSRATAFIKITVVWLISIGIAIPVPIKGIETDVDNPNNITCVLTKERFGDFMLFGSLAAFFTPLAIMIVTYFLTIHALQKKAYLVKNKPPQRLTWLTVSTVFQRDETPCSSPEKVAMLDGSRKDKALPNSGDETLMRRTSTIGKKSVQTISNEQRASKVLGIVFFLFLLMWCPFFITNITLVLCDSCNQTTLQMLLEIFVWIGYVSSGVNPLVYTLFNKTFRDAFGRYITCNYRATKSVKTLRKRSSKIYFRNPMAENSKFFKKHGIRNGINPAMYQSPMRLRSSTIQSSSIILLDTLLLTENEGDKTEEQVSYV
Sequence of Transient receptor potential cation channel subfamily A member 1 (Q8BLA8 whole entry): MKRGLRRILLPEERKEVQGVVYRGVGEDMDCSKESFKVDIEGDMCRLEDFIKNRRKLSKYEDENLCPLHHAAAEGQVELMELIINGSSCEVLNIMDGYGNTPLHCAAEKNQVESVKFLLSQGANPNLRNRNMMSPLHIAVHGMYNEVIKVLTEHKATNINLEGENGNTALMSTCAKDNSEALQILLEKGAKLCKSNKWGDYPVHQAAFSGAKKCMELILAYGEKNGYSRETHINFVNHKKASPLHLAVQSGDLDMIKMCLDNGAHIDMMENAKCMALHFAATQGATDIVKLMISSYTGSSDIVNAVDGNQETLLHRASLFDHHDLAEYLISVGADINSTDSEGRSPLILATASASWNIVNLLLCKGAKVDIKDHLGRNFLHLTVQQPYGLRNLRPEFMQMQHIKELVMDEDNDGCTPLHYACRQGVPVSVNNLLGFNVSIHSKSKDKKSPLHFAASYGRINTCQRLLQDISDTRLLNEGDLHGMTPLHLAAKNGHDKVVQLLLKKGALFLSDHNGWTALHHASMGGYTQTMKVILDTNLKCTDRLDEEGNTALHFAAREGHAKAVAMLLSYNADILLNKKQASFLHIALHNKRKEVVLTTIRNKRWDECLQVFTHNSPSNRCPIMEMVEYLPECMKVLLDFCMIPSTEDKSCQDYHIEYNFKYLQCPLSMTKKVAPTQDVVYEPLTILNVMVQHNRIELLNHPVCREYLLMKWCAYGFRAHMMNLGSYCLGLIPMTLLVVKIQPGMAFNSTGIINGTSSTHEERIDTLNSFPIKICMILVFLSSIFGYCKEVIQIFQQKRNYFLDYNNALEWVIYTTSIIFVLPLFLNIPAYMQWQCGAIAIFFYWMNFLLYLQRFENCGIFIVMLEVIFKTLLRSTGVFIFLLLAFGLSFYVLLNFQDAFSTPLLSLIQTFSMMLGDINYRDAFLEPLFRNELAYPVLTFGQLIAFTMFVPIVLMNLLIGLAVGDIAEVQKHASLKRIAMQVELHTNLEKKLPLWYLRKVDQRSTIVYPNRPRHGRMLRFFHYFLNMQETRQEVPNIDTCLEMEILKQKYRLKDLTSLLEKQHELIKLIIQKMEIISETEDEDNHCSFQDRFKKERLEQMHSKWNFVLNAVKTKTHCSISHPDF
Sequence of Potassium channel subfamily K member 9 (Q9NPC2 whole entry): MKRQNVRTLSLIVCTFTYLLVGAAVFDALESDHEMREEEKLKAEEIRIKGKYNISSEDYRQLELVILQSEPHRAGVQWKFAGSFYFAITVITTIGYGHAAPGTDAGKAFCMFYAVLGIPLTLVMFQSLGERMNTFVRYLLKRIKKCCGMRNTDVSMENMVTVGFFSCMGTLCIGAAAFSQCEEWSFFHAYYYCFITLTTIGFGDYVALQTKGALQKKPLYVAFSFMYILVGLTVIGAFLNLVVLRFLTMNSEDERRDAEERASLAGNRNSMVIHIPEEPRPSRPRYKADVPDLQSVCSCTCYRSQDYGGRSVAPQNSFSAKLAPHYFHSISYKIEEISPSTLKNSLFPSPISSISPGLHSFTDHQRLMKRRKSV
Sequence of B1 bradykinin receptor (Homo sapiens) (P46663 whole entry): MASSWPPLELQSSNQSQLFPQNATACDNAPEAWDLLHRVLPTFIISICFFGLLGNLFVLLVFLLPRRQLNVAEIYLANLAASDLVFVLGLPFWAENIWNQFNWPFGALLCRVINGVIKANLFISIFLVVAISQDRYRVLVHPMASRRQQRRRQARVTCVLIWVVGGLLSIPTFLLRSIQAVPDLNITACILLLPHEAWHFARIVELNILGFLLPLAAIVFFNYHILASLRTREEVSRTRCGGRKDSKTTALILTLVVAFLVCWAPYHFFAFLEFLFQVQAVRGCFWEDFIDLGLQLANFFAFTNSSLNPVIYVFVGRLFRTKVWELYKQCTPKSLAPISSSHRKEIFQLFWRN
Sequence of D(1A) dopamine receptor (Homo sapiens) (P21728 whole entry): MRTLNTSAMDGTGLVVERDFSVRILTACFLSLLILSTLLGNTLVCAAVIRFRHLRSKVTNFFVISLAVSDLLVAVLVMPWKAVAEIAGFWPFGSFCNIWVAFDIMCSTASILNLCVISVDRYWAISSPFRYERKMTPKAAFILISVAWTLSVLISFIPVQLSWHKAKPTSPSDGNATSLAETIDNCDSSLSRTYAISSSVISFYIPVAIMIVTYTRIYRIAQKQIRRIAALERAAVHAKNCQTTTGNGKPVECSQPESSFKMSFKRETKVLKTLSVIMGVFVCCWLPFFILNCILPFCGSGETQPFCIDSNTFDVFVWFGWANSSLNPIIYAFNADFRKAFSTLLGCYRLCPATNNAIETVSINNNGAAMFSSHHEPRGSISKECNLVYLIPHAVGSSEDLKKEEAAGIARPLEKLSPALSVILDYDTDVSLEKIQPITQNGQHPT
Sequence of Motilin receptor (Homo sapiens) (O43193 whole entry): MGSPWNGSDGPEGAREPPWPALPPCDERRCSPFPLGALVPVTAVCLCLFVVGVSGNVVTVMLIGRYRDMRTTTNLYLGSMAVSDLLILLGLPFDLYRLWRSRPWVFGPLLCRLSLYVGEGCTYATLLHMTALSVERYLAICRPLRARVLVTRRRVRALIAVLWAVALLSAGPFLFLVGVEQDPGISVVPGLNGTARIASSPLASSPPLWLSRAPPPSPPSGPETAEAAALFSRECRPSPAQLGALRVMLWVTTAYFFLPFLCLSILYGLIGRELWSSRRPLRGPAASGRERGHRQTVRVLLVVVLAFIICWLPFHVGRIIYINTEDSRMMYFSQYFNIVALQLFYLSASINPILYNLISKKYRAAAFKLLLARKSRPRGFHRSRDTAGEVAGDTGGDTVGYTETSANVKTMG
Sequence of 5-hydroxytryptamine receptor 1B (Homo sapiens) (P28222 whole entry): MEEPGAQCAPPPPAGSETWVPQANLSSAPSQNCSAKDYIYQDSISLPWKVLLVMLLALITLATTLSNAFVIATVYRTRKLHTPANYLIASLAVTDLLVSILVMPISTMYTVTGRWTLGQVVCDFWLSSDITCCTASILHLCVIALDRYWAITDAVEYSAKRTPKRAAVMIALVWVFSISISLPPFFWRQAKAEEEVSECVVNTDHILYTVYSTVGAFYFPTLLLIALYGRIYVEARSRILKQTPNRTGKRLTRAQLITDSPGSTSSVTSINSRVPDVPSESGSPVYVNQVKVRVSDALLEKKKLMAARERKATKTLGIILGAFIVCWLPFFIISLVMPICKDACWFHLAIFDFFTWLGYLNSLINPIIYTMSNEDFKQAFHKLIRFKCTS
Sequence of Histamine H2 receptor (P25021 whole entry): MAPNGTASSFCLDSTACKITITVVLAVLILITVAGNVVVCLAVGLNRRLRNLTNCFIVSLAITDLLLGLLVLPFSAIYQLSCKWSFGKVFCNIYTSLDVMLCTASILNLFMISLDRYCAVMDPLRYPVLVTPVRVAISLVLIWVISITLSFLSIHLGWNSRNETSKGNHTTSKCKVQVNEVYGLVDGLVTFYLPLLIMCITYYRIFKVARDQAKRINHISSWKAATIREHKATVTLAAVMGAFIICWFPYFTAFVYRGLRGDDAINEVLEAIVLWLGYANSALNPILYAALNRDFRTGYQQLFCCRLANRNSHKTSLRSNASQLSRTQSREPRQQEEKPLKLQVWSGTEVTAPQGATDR
Sequence of 5-hydroxytryptamine receptor 6 (Homo sapiens) (P50406 whole entry): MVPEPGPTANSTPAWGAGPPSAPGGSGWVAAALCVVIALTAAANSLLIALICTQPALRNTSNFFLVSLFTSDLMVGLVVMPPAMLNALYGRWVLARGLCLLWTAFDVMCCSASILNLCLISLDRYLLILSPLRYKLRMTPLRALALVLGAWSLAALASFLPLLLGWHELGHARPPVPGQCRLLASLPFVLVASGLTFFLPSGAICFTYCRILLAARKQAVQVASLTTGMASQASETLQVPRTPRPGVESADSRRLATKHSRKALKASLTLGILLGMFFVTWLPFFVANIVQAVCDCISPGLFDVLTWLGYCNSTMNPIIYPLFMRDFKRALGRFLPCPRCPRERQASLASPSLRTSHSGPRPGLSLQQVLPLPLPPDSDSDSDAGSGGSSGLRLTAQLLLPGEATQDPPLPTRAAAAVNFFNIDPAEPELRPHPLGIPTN

Work on `O[C@]1(C(F)(F)F)CCCC[C@H]1Nc1ccc(F)cc1` [BAY-390] yielded an inhibition [1] of 9%, an IC50 [2] of 2.5 µM and a Ki [2] of 0.72 µM. For the same compound, the IC50 [3] was 0.073 µM (active), the IC50 [4] was 0.081 µM (active) and the IC50 [5] was 0.019 µM (active). For the same compound, the IC50 [6] was > 25 µM (not active), the IC50 [7] was > 30 µM (not active) and the inhibition [8] was -3.12%. For the same compound, the inhibition [9] was -7.74%, the inhibition [10] was 15.6% and the inhibition [11] was 18%. It also gave an inhibition [12] of 5%, an inhibition [13] of -4% and an inhibition [14] of 84%. It also gave an inhibition [15] of -5%, an inhibition [16] of 14% and an inhibition [17] of 3%. The inhibition [18] was -7% and the inhibition [19] was 13%.
`COc1cc(N[C@@H]2CCCC[C@]2(O)C(F)(F)F)ccc1F` [BAY-9897] gave a Ki [20] of 9.78 µM, an inhibition [21] of 18% and an inhibition [22] of -4.02%. The inhibition [23] was -0.18%.
